# Measured values: PubChem BioAssay AID248 (DTP/NCI, 2004)
# Where “and” joins values, the source holds several entries; their conditions need not be identical. Equal entries are not always repeated. Toxic doses and inconclusive results are not listed.
# System: L1210 leukemia ip in BDF1 mice, survival T/C
# Assay: NCI In Vivo Anticancer Drug Screen. Data for tumor model L1210 Leukemia (intraperitoneal) in B6D2F1 (BDF1) mice
# Settings: endpoint: mean survival time, higher = longer survival
# How it was run: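 Mice bearing the transplanted tumor received compound or vehicle. Survival of the treated group was divided by that of the vehicle-treated control group to give the ratio.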
# [1] = dose: 100.0 mg/kg/injection, schedule: Q04DX003 (ip), vehicle: saline
# [2] = dose: 200.0 mg/kg/injection, schedule: Q04DX003 (ip), vehicle: saline
# [3] = dose: 400.0 mg/kg/injection, schedule: Q04DX003 (ip), vehicle: saline
# [4] = dose: 100.0 mg/kg/injection, schedule: Q01DX001 (ip), vehicle: saline
# [5] = dose: 200.0 mg/kg/injection, schedule: Q01DX001 (ip), vehicle: saline
# [6] = dose: 400.0 mg/kg/injection, schedule: Q01DX001 (ip), vehicle: saline
# [7] = dose: 100.0 mg/kg/injection, schedule: Q01DX009 (ip), vehicle: Klucel (hydroxypropylcellulose) (HPC)
# [8] = dose: 100.0 mg/kg/injection, schedule: Q04DX003 (ip), vehicle: Klucel (hydroxypropylcellulose) (HPC)
# [9] = dose: 200.0 mg/kg/injection, schedule: Q01DX009 (ip), vehicle: Klucel (hydroxypropylcellulose) (HPC)
smiles,measurement,setting,value
CCCCCCCC(C(=O)O)C(CCCCCCC)C(=O)O (configuration not stated),T/C,"dose: 6.0 mg/kg/injection, schedule: Q01DX009 (ip), vehicle: saline",89 % of control
same,T/C,"dose: 12.0 mg/kg/injection, schedule: Q01DX009 (ip), vehicle: saline",96 % of control
same,T/C,"dose: 12.0 mg/kg/injection, schedule: Q04DX003 (ip), vehicle: saline",98 % of control
same,T/C,"dose: 25.0 mg/kg/injection, schedule: Q04DX003 (ip), vehicle: saline",104 % of control
CCOC(=O)NCc1cnccn1,T/C,[1],100 % of control and 102 % of control
same,T/C,[2],95 % of control and 100 % of control
same,T/C,[3],104 % of control
O=c1[nH]c2ccccc2c(=O)o1,T/C,[4],96 % of control
same,T/C,[5],89 % of control
same,T/C,[6],89 % of control
CN1N(C(O)C(Cl)(Cl)Cl)C12CCCCC2 (configuration not stated),T/C,"dose: 200.0 mg/kg/injection, schedule: Q01DX001 (ip), vehicle: carboxymethylcellulose (CMC)",101 % of control
same,T/C,"dose: 400.0 mg/kg/injection, schedule: Q01DX001 (ip), vehicle: carboxymethylcellulose (CMC)",98 % of control
COc1cc2nc3cc([N+](=O)[O-])ccc3c(Cl)c2cc1OC,T/C,[7],96 % of control
same,T/C,[8],97 % of control
same,T/C,[9],88 % of control
same,T/C,"dose: 200.0 mg/kg/injection, schedule: Q04DX003 (ip), vehicle: Klucel (hydroxypropylcellulose) (HPC)",98 % of control
same,T/C,"dose: 400.0 mg/kg/injection, schedule: Q04DX003 (ip), vehicle: Klucel (hydroxypropylcellulose) (HPC)",103 % of control
O=S(=O)(F)c1cc(Cl)ccc1CBr,T/C,"dose: 25.0 mg/kg/injection, schedule: Q04DX002 (ip), vehicle: saline with Tween-80",96 % of control
same,T/C,"dose: 50.0 mg/kg/injection, schedule: Q04DX002 (ip), vehicle: saline with Tween-80",100 % of control
same,T/C,"dose: 100.0 mg/kg/injection, schedule: Q04DX002 (ip), vehicle: saline with Tween-80",93 % of control
same,T/C,"dose: 200.0 mg/kg/injection, schedule: Q04DX002 (ip), vehicle: saline with Tween-80",104 % of control
same,T/C,"dose: 400.0 mg/kg/injection, schedule: Q04DX002 (ip), vehicle: saline with Tween-80",101 % of control
C1=C(C2=CCCCC2)CCCC1,T/C,"dose: 100.0 mg/kg/injection, schedule: Q01DX009 (ip), vehicle: acetone",108 % of control
same,T/C,[1],112 % of control
same,T/C,"dose: 200.0 mg/kg/injection, schedule: Q01DX009 (ip), vehicle: acetone",100 % of control
same,T/C,[2],104 % of control
same,T/C,"dose: 400.0 mg/kg/injection, schedule: Q01DX009 (ip), vehicle: acetone",108 % of control
same,T/C,[3],96 % of control
c1ccc2c(c1)ccc1c3ccncc3ccc21,T/C,[4],101 % of control
same,T/C,[5],98 % of control
same,T/C,[6],98 % of control
CC(=O)Nc1cc(Cl)c(Cl)c([N+](=O)[O-])c1,T/C,[7],100 % of control
same,T/C,[9],97 % of control
C1CC(CCN2CCOCC2)CCN1,T/C,[4],98 % of control
same,T/C,[5],107 % of control
same,T/C,[6],105 % of control
CCOC(=O)/C(C#N)=C\c1cccs1,T/C,[8],103 % of control
CSP(N)(N)=O,T/C,"dose: 5.0 mg/kg/injection, schedule: Q01DX001 (ip), vehicle: saline",97 % of control
same,T/C,"dose: 10.0 mg/kg/injection, schedule: Q01DX001 (ip), vehicle: saline",103 % of control
CNC(=O)c1ccc(NC(=O)Nc2cccc(C3=NCCN3)c2)cc1NC(=O)Nc1cccc(C2=NCCN2)c1,T/C,"dose: 4.5 mg/kg/injection, schedule: Q01DX Z (ip), vehicle: carboxymethylcellulose (CMC)",97 % of control
same,T/C,"dose: 9.0 mg/kg/injection, schedule: Q01DX Z (ip), vehicle: carboxymethylcellulose (CMC)",113 % of control
same,T/C,"dose: 36.0 mg/kg/injection, schedule: Q01DX Z (ip), vehicle: carboxymethylcellulose (CMC)",160 % of control
